Source: patent US10835456B2, “Propyl gallate-containing vitamin preparations” (BASF SE, priority 2016, dated 2020)
Blank lines part the entries; values can stand above or below the compound they belong to.

Assays:
[1] = Stress test: stability in premix mixture, stored at 40° C. and 70% humidity for 4 weeks, retention of vitamin content; type: physicochemical; conditions: for Retention Active ingredient content after 4-week premix test: Table 3c; for Retention Canthaxanthin after 4-week test: Table 5c
Protocol: The stress test for the vitamins is configured such that specimens of 100 mg in each case of the formulation produced and 4 g of premix mixture are weighed into glass vessels. The premix mixture consists of 50% by weight of fine lime (particle size <1000 μm), 20% by weight of wheat bran (particle size <1000 μm), 20% by weight of 50% silica-supported choline chloride (particle size <1000 μm) and 10% by weight of trace element mixture (particle size 100-500 μm). The trace element mixture is composed of 46.78% by weight of FeSO4x7H2O (100-500 μm), 37.43% by weight of CuSO4x5H2O (100-500 μm), 11.79% by weight of ZnO (<500 μm), 3.61% by weight of MnO and 0.39% by weight of CoCO3. After addition of all ingredients, the specimens are mixed cautiously, with performance of the mixing mechanically or else by hand, and these specimens (A) are stored in a climate-controlled chamber at 40° C. and 70% humidity for 4 weeks. […]
For this purpose, specimens each of 100 mg of the formulation produced and 4 g of premix mixture are weighed out in glass vessels (50 mL glass vials). The premix mixture consists of 50% by weight of fine lime (particle size <1000 μm), 20% by weight of wheat bran (particle size <1000 μm), 20% by weight of 50% silica-supported choline chloride (particle size <1000 μm) and 10% by weight of trace element mixture (particle size 100-500 μm), said trace element mixture consisting of 46.78% by weight of FeSO4x7H2O (100-500 μm), 37.43% by weight of CuSO4x5H2O (100-500 μm), 11.79% by weight of ZnO (<500 μm), 3.61% by weight of MnO and 0.39% by weight of CoCO3. After addition of all ingredients, the specimens are mixed cautiously, where the mixing can be performed mechanically or else by hand, and these specimens (A) are stored in a climate-controlled chamber at 40° C. and 70% humidity for 4 weeks. An identical test is conducted with a comparative sample (B) which is of identical composition but which comprises, rather than propyl gallate, the same amount of ethoxyquin. […] The ratio of the contents after (A2), (B2) and before the storage (A1) and (B1) are used here to calculate the retention (A2/A1) or (B2/B1) of the samples. For the formulations of the invention, a quotient (A2/A1):(B2/B1) of at least 0.75 is determined here. Preferably, for the formulations of the invention, a quotient of at least 1 is obtained.
The stability of the particles thus produced was tested in a stress test. For this purpose, specimens each of 100 mg of the particles produced and 4 g of premix mixture were weighed into 50 mL glass bottles. The premix mixture consisted of 50% by weight of fine lime (particle size <1000 μm), 20% by weight of wheat bran (particle size <1000 μm), 20% by weight of 50% silica-supported choline chloride (particle size <1000 μm) and 10% by weight of trace element mixture (particle size 100-500 μm), and the trace element mixture of 46.78% by weight of FeSO4x7H2O (100-500 μm), 37.43% by weight of CuSO4x5H2O (100-500 μm), 11.79% by weight of ZnO (<500 μm), 3.61% by weight of MnO and 0.39% by weight of CoCO3. After addition of all ingredients, the specimens were carefully mixed by hand. These specimens were stored in a climate-controlled chamber at 40° C. and 70% air humidity for 4 weeks. […]

[2] = Particle size after dissolution in water by photon correlation spectroscopy (Malvern Zetasizer Nano ZSP); type: physicochemical; conditions: dry powder with propyl gallate added to the dispersion (Examples 1, 3b, 3c, 3d), PCS
Protocol: The particle size is determined by means of a Malvern Zetasizer Nano ZSP.
30 g of citranaxanthin were suspended in 240 g of isopropanol together with 1.1 g of ascorbyl palmitate and, with setting of the pressure-limiting valve to 30 bar, mixed continuously with 390 g of isopropanol in a mixing chamber A. At a metering rate of 6 L/h on the suspension side and of 9 L/h on the solvent side, a mixing temperature of 170° C. was established in the mixing chamber A. After a residence time of 0.3 second, the molecularly disperse solution was mixed in mixing chamber B with a solution of 32 g of gelatin, 71.4 g of sucrose and 50 g of glucose syrup in 4000 g of water at a throughput rate of 100 L/h. After the solvent had been removed under reduced pressure in a distillation apparatus, an active ingredient dispersion was obtained, to which 8 g of sunflower oil and 8 g of propyl gallate were added. The propyl gallate was predissolved here in 200 mL of water and adjusted to pH 7 with NaOH. Subsequently, the dispersion was converted to a stable, water-soluble dry powder by spray drying. After dissolution in water, by photon correlation spectroscopy (PCS), a particle size of 386 nm (standard deviation 142.5, polydispersity index PDI 0.185, D(95): 660 nm) was measured (Malvern Zetasizer Nano ZSP).

[3] = as above; type: physicochemical; conditions: dry powder of Example 3e, PCS
[4] = impurity from ethoxyquin preparation remaining in animal feed; cited from earlier work

Retention Active ingredient content after 4-week premix test ([1]; propyl gallate 0% by wt., dispersion): 6.7% | Retention Active ingredient content after 4-week premix test ([1]; propyl gallate 2% by wt., dispersion): 13.83% | Retention Active ingredient content after 4-week premix test ([1]; propyl gallate 4% by wt., dispersion): 42.7% | Retention Active ingredient content after 4-week premix test ([1]; propyl gallate 6% by wt., dispersion): 57.7% | Retention Active ingredient content after 4-week premix test ([1]; propyl gallate 8% by wt., dispersion): 64.1% | Retention Active ingredient content after 4-week premix test ([1]; propyl gallate 10% by wt., dispersion): 58.5% | Retention Active ingredient content after 4-week premix test ([1]; propyl gallate 12% by wt., dispersion): 54.3% | Retention Active ingredient content after 4-week test ([1]; Table 3e, ethoxyquin 4% by wt., dispersion): 28.6% | Retention Active ingredient content after 4-week test ([1]; Table 3e, propyl gallate 4% by wt., dispersion): 33.4% | Retention Active ingredient content after 4-week test ([1]; Table 3e, propyl gallate 4% by wt., dispersion (pH adjustment before spraying from pH 8.5 to pH 6.8 with H2SO4)): 39.8% | Retention Active ingredient content after 4-week test ([1]; Table 3e, propyl gallate 6% by wt., dispersion): 44.4% | Retention Active ingredient content after 4-week test ([1]; Table 3e, propyl gallate 8% by wt., dispersion): 43.4% | Retention Active ingredient content after 4-week test ([1]; Table 4b, D,L-α tocopherol 4% by wt. (in active ingredient phase) + propyl gallate 4% by wt. (in protective colloid phase)): 29.2% | Retention Active ingredient content after 4-week test ([1]; Table 4b, mixed tocopherol 4% by wt. (in active ingredient phase) + propyl gallate 4% by wt. (in protective colloid phase)): 57.5% | Retention Canthaxanthin after 4-week test ([1]; propyl gallate 0% by wt., mixed tocopherol 4% by wt.): 11% | Retention Canthaxanthin after 4-week test ([1]; propyl gallate 4% by wt., mixed tocopherol 0% by wt.): 42.7% | Retention Canthaxanthin after 4-week test ([1]; propyl gallate 4% by wt., mixed tocopherol 4% by wt.): 61.7% | particle size [2]: 280 nm | polydispersity index PDI [2]: 0.181 | D(95) [3]: 683 nm | particle size [3]: 373 nm | polydispersity index PDI [3]: 0.203
SMILES: CCOC(=O)/C(C)=C/C=C/C(C)=C/C=C/C=C(C)/C=C/C=C(C)/C=C/C1=C(C)CCCC1(C)C [C30 ester]

SMILES: CCOc1ccc(N)cc1 [p-phenetidine]
mutagenicity [4]: possibly a mutagen
